Results taken from patent publication US20130096105A1, “ArylSulfonamide Based Matrix Metalloprotease Inhibitors” (NOVARTIS AG, priority 2008, published 2013).

How the values were obtained:
[1] = biological target: Collagenase-3 (MMP-13) (Homo sapiens, UniProt P45452); assay: Collagenase-3 (MMP-13) inhibitory activity, fluorogenic peptide substrate cleavage; assay type: biochemical; details: read-out: MMP13 IC50
Outline: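 Recombinant pro-MMP-13 activated with 1 mM APMA; inhibitor preincubated 60 min, then 5 μM MCA-Lys-Pro-Leu-Gly-Leu-Dpa-Ala-Arg-NH2 added in Tris-Cl pH 7.5 buffer with Zn2+, Ca2+, Brij-35, 1.0% DMSO, 20-25 °C. Fluorescence (ex 325/em 405 nm) read after 60 min; IC50 versus uninhibited control.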

[2] = biological target: T1, Gelatinase (MMP-2) (Homo sapiens, UniProt P08253); assay: Gelatinase (MMP-2) inhibitory activity, fluorogenic peptide substrate cleavage; assay type: biochemical; details: read-out: MMP02 IC50
T1 sequence (P08253 110-660): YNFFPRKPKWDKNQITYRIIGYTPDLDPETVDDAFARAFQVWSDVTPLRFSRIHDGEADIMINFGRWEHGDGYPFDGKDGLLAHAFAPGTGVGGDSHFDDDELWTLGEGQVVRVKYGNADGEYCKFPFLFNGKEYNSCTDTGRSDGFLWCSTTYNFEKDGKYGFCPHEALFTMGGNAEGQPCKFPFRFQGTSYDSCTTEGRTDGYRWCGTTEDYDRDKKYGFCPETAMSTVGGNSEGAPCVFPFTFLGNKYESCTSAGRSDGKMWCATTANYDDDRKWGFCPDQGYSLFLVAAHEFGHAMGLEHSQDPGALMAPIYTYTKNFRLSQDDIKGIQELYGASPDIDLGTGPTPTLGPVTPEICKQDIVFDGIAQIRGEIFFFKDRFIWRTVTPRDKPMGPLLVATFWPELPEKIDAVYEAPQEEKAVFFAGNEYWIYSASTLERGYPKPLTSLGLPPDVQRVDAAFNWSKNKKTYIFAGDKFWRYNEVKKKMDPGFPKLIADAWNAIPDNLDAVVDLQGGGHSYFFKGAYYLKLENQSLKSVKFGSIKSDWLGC
Outline: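 Fluorogenic assay with MCA-Lys-Pro-Leu-Gly-Leu-Dpa-Ala-Arg-NH2 at 5 μM in Tris-Cl pH 7.5 buffer with ZnCl2, CaCl2, Brij-35 and 1.0% DMSO, 20-25 °C. Enzyme preincubated with inhibitor 60 min; fluorescence (ex 325/em 405 nm) read 60 min after substrate addition. IC50 relative to uninhibited control.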

| SMILES | melting point [°C] | IC50 [1] [µM] | IC50 [2] [µM] |
| --- | --- | --- | --- |
| NS(=O)(=O)c1cc(C(=O)c2ccc(-c3ccc4ccccc4c3)cc2)ccc1Cl [Example 38, 2-Chloro-5-(4-naphthalen-2-yl-benzoyl)-benzenesulfonamide] | 193 to 195 | 8.58 | 14.5 |
| NS(=O)(=O)c1cc(C(=O)c2ccc(-c3cccnc3)cc2)ccc1Cl [Example 41, 2-Chloro-5-(4-pyridin-3-yl-benzoyl)-benzenesulfonamide] | 190 to 192 | 7.52 | > 9 |
| NS(=O)(=O)c1cc(C(=O)c2ccc(O)c(F)c2)ccc1Cl [Example 47, 2-Chloro-5-(3-fluoro-4-hydroxy-benzoyl)-benzenesulfonamide] | 206 to 208 | 11.1 | 17.3 |
| NS(=O)(=O)c1cc(C(=O)c2ccc(O)cc2F)ccc1Cl [Example 50, 2-Chloro-5-(2-fluoro-4-hydroxy-benzoyl)-benzenesulfonamide] | 183 to 185 | 21.3 | 24.3 |
| NS(=O)(=O)c1cc(C(=O)c2ccc(C(=O)N3CCCC3)cc2)ccc1Cl [Example 53, 2-Chloro-5-[4-(pyrrolidine-1-carbonyl)-benzoyl]-benzenesulfonamide] | 146 to 148 | > 30 | > 30 |
| Cc1cccc(-c2ccc(C(=O)c3ccc(Cl)c(S(N)(=O)=O)c3)cc2)c1 [Example 60, 2-Chloro-5-(3′-methyl-biphenyl-4-carbonyl)-benzenesulfonamide] | 176 to 178 | 5.44 | 6.31 |
| Nc1cccc(-c2ccc(C(=O)c3ccc(Cl)c(S(N)(=O)=O)c3)cc2)c1 [Example 69, 5-(3′-Amino-biphenyl-4-carbonyl)-2-chloro-benzenesulfonamide] | 228 to 230 | 2.41 | 1.37 |
| NS(=O)(=O)c1cc(C(=O)c2ccc(-c3cccc(C(F)(F)F)c3)cc2)ccc1Cl [Example 75, 2-Chloro-5-(3′-trifluoromethyl-biphenyl-4-carbonyl)-benzenesulfonamide] | 75 to 77 | 25.9 | > 30 |
| NS(=O)(=O)c1cc(C(=O)c2ccc3c(c2)CCN3)ccc1Cl [Example 110, 2-Chloro-5-(2,3-dihydro-1H-indole-5-carbonyl)-benzenesulfonamide] | 55 to 56 | 16.1 | 12 |
| NS(=O)(=O)c1cc(C(=O)c2ccc3[nH]ccc3c2)ccc1Cl [Example 116, 2-Chloro-5-(1H-indole-5-carbonyl)-benzenesulfonamide] | 65 to 66 | 15.3 | 15.4 |
